Key:
[1] = test system: T lymphocyte proliferation (murine spleen cells); assay: Mixed Lymphocyte Reaction (MLR), one-way; assay type: cell-based, mice; conditions: Mus musculus, T-lymphocyte, light or radiation study, 72 h, C57B1/6 spleen cells with irradiated BALB/c spleen cells; tritiated thymidine incorporation, 3 days
From the text: Mixed Lymphocyte Reaction (MLR)
Admixture of murine spleen cells from two different inbred strains of mice induces proliferation of T lymphocytes. The magnitude of T cell proliferation depends on the extent of disparity in the major histocompatibility antigens between the two strains. Splenic T lymphocytes from both strains proliferate due to alloantigen recognition, a process for which the interaction of ICAM-1 on antigen-presenting cells with LFA-1 on lymphocytes is necessary. The ability of antagonists to inhibit T lymphocyte proliferation following recognition of alloantigens was assessed in a one-way MLR, where cells from one strain were irradiated to permit measurement of the proliferative response of cells from the other strain. Spleen cells were washed three times in tissue culture medium (TCM; see below). Fifty microliters of a spleen cell suspension (prepared at 10×10^6 cells/ml in TCM) obtained from C57B1/6 mice were added to an equal number of lethally-irradiated (2000 rads) spleen cells obtained from BALB/c mice in a 96-well U-bottom tissue culture plate (Costar, 3799). One hundred microliters of serial dilutions of antagonists or TCM were added to the spleen cell mixture. The total volume in each well was 200 μL. TCM was RPMI1640 containing 10% heat-inactivated fetal bovine serum, […] L-glutamine, 100 Units/ml each of penicillin and streptomycin and 5×10^−5 M 2-mercaptoethanol. Dilutions of antagonists were prepared in TCM. Plates were incubated in 5% CO2 for 3 days. On the third day, 0.5 μCi of tritiated thymidine (10 μCi/mL) was added to all the wells. Cells were harvested 6 h later on a 96-well plate harvester and the amount of tritiated thymidine incorporated was assessed in a liquid scintillation counter.

[2] = molecular target: T1, LFA-1 binding to immobilized ICAM-1 (Homo sapiens, UniProt P05107+P20701); assay: LFA-1/ICAM-1 Protein-Protein Assay (solid-phase ELISA); conditions: 5dICAM-Ig coated plates; membrane-bound LFA-1 from transfected 293 cells
T1 construct: made in house; host or cells: transfected 293 cells (LFA-1)
T1 sequence (P20701 26-1170): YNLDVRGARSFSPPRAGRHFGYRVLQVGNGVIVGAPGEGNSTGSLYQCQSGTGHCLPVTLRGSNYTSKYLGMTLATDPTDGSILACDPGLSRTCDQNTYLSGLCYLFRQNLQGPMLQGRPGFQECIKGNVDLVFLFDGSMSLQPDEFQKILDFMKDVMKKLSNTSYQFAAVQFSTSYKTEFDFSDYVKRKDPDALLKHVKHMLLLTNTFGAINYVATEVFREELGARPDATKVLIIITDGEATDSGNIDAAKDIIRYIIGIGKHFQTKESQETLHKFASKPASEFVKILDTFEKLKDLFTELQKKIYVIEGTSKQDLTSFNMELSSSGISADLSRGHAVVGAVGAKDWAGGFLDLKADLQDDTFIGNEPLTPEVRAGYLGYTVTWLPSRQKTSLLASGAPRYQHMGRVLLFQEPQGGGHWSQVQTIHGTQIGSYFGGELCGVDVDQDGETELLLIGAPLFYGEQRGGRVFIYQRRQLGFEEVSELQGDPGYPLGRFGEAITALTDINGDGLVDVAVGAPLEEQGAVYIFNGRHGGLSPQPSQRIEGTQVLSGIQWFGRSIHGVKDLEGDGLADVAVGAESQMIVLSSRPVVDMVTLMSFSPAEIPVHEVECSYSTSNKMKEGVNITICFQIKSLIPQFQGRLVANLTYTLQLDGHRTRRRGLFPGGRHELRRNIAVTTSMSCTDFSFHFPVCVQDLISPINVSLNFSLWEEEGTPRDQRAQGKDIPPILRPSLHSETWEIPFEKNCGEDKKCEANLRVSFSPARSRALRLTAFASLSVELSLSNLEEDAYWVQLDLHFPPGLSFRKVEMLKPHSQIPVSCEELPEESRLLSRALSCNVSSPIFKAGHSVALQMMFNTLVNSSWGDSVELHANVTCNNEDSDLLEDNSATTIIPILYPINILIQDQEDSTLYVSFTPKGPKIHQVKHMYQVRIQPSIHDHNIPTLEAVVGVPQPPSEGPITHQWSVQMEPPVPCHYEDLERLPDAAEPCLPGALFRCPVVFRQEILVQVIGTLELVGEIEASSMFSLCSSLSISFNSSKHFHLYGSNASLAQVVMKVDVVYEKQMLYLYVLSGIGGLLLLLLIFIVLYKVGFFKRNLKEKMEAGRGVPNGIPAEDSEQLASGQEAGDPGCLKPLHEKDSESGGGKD
T1 sequence (P05107 23-769): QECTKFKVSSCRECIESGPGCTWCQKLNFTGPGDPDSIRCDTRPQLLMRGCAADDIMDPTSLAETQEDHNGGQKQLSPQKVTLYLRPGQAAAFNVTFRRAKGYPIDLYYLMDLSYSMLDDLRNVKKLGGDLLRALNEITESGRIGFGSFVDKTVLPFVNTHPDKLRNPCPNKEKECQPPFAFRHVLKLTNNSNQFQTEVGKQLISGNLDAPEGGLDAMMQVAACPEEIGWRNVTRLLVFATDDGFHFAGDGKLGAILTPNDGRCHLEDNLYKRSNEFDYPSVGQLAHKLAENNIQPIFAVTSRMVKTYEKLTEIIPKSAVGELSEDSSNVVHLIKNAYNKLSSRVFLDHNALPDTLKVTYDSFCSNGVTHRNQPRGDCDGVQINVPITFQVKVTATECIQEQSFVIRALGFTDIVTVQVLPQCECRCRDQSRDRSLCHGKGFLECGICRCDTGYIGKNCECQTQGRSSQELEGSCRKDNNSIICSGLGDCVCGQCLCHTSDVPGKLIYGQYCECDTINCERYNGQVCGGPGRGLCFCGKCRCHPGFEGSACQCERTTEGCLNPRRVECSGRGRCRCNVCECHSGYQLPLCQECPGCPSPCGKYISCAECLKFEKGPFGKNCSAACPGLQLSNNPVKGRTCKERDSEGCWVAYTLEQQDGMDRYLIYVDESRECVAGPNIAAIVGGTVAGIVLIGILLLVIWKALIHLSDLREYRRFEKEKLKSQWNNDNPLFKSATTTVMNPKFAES
Protocol: LFA-1/ICAM-1 Protein-Protein Assay
LFA-1/ICAM-1 antagonist activity, defined as the ability to block LFA-1 binding to immobilized ICAM-1, was quantitated using a solid-phase ELISA. Typically, fusion protein consisting of the entire extracellular domain of human ICAM-1 and the Fc domain of human IgG (5dICAM-Ig) was coated onto 96-well microtiter plates (0.15 μg in 100 μL PBS) overnight at 4° C. The plates were then blocked with 150 μL of 1% BSA/1 mM MnCl2/0.14 M NaCl/20 mM HEPES, pH 7.2 for 1 h at 37° C. and washed 3 times (150 μL each) with Wash Buffer (50 mM Tris, pH 7.4/100 mM NaCl/1 mM MnCl2/0.05% Tween 20). Stock solutions (100 μM in 100% DMSO) of test compounds were diluted 50 fold with 150 μL of Binding Buffer (0.05% BSA/0.05% Tween 20/1 mM MnCl2/0.14 M NaCl/20 mM HEPES, pH 7.2) plus 10% DMSO. A series of 1:4 dilutions were performed to achieve a concentration range of 0.12 nM-2 μM. Fifty μL per well of each dilution was added to the ICAM-1 coated plates, followed by 50 μL per well of membrane-bound LFA-1 (280 ng/mL in Binding Buffer) derived from transfected 293 cells. The plates were shaken vigorously for 1 min (room temperature) and gently for 2 h (37° C.). After incubation, the plates were washed 3 times (150 μL each) with Wash Buffer. Mouse anti-human integrin β2 monoclonal antibody was added (100 μL/well, 1 μg/ml in Binding Buffer) and allowed to incubate for 1 h (37° C.) with gentle agitation. The plates were then washed 3 times with Wash Buffer. HRP-conjugated goat anti-mouse IgG (100 μL/well, 1:1500 dilution in Binding Buffer) was added to each well, followed by incubation for 1 h (37° C.) and concluded by three washes (150 μL each) with Wash Buffer. TMB solution (100 μL per well) was added for color development (10 min). The reaction was stopped by the addition of 100 μL of 1M H3PO4 to each well. The plates were then read at 450 nm.

| SMILES | IC50 [2] [nM] | IC50 [1] [nM] |
| --- | --- | --- |
| Cc1nc(C)c(/C=C(\NC(=O)c2ccc(C(O)CCc3cccc(O)c3)cc2Cl)C(=O)O)s1 (racemic) [Example 297, rac.-(Z)-2-[[2-Chloro-4-[1-hydroxy-3-(3-hydroxyphenyl)propan-1-yl]benzoyl]amino]-3-(2,4-dimethylthiazol-5-yl)propenoic Acid] | 5.96 | 5700 |
| Cc1nc(C)c(/C=C(\NC(=O)c2ccc(C(O)/C=C/c3cccc(O)c3)cc2Cl)C(=O)O)s1 (racemic) [Example 299, rac.-(Z)-2-[[2-Chloro-4-[(E)-1-hydroxy-3-(3-hydroxyphenyl)prop-2-en-1-yl]benzoyl]amino]-3-(2,4-dimethylthiazol-5-yl)propenoic Acid] | 13.1 | 10000 |
| O=C(O)/C(=C/C1CCCNC1)NC(=O)c1ccc(C(=O)NCc2cccc(O)c2)cc1Br (racemic) [Example 318] | 171 | – |
| O=C(O)/C(=C/CC1CCCCN1)NC(=O)c1ccc(C(=O)NCc2cccc(O)c2)cc1Br (racemic) [Example 320] | 140 | – |
| Cc1cc(C(=O)N[C@H](C)c2cccc3ccccc23)cc(C)c1C(=O)N/C(=C\c1ccccc1)C(=O)O [Example 237] | 27 | 20000 |
| Cc1cc(C(=O)N[C@H](C)c2cccc3ccccc23)cc(C)c1C(=O)N/C(=C\c1ccncc1)C(=O)O [Example 238] | 16.7 | – |
| Cc1cc(C(=O)N[C@H](C)c2cccc3ccccc23)cc(C)c1C(=O)N/C(=C\c1ccc2[nH]nnc2c1)C(=O)O [Example 239] | 2.15 | – |
| Cc1cc(C(=O)N[C@H](C)c2cccc3ccccc23)cc(C)c1C(=O)N/C(=C\c1[nH]cnc1C)C(=O)O [Example 240] | 4.78 | 3470 |
| Cc1cc(C(=O)N[C@H](C)c2cccc3ccccc23)cc(C)c1C(=O)N/C(=C\c1cnc2ccccc2c1)C(=O)O [Example 241] | 2.04 | 2600 |
| Cc1cc(C(=O)NCc2cc(F)cc(F)c2)cc(C)c1C(=O)N/C(=C\c1[nH]cnc1C)C(=O)O [Example 250, (Z)-2-[[4-[[(3,5-Difluorobenzyl)amino]carbonyl]-2,6-dimethylbenzoyl]amino]-3-(4-methyl-1H-imidazol-5-yl)propenoic Acid] | 37 | – |
| CC(C)c1csc(/C=C(\NC(=O)c2ccc(C(=O)NCc3cccc(O)c3)cc2Br)C(=O)O)n1 [Example 256] | 279 | – |
| O=C(O)/C(=C/c1nc(C(F)(F)F)cs1)NC(=O)c1ccc(C(=O)NCc2cccc(O)c2)cc1Br [Example 257] | 101 | – |
| Cc1nc(C(C)C)c(/C=C(\NC(=O)c2ccc(C(=O)NCc3cccc(O)c3)cc2Br)C(=O)O)s1 [Example 259] | 8.14 | – |
| COc1ncc(/C=C(\NC(=O)c2ccc(C(=O)NCc3cccc(O)c3)cc2Br)C(=O)O)c(OC)n1 [Example 284] | 12.6 | – |
| CC/C=C(\NC(=O)c1ccc(C(=O)NCc2cccc(O)c2)cc1Br)C(=O)O [Example 289] | 40.9 | – |
| O=C(O)/C(=C/C1CCNCC1)NC(=O)c1ccc(C(=O)NCc2cccc(O)c2)cc1Br [Example 319] | 72 | – |
| Cc1cc(C(=O)NCc2cccc(O)c2)cc(C)c1C(=O)N/C(=C\c1ccc2[nH]nnc2c1)C(=O)O [Example 326, (Z)-3-(1H-Benzotriazol-5-yl)-2-[[4-[[(3-hydroxybenzyl)amino]carbonyl]-2,6-dimethylbenzoyl]amino]propenoic Acid] | 1.12 | – |

Continued, in another order:

| IC50 [2] [nM] | SMILES | IC50 [1] [nM] |
| --- | --- | --- |
| 1.56 | O=C(O)/C(=C/c1cnc2ccccc2c1)NC(=O)c1ccc(C(O)CCc2cccc(O)c2)cc1Cl (racemic) [Example 296, rac.-(Z)-2-[[2-Chloro-4-[1-hydroxy-3-(3-hydroxyphenyl)propan-1-yl]benzoyl]amino]-3-(quinolin-3-yl)propenoic Acid] | 2400 |
| 4.26 | O=C(O)/C(=C/c1cnc2ccccc2c1)NC(=O)c1ccc(C(O)/C=C/c2cccc(O)c2)cc1Cl (racemic) [Example 298, rac.-(Z)-2-[[2-Chloro-4-[(E)-1-hydroxy-3-(3-hydroxyphenyl)prop-2-en-1-yl]benzoyl]amino]-3-(quinolin-3-yl)propenoic Acid] | 6200 |
| 42.9 | Cc1nc(/C=C(\NC(=O)c2ccc(C(=O)NCc3cccc(O)c3)cc2Br)C(=O)O)cs1 [Example 235, (Z)-2-[[2-Bromo-4-[[(3-hydroxybenzyl)amino]carbonyl]benzoyl]amino]-3-(2-methylthiazol-4-yl)propenoic Acid] | 13500 |
| 25.6 | Cc1cc(C(=O)N[C@H](C)c2cccc3ccccc23)cc(C)c1C(=O)N/C(=C\c1ncc[nH]1)C(=O)O [Example 236] | 7180 |
| 22 | C[C@@H](NC(=O)c1cc(Cl)c(C(=O)N/C(=C\c2ccc3[nH]nnc3c2)C(=O)O)c(Cl)c1)c1cccc2ccccc12 [Example 242] | – |
| 13.2 | O=C(O)/C(=C/c1ccoc1)NC(=O)c1ccc(C(=O)NCc2cccc(O)c2)cc1Br [Example 243] | – |
| 1.95 | Cc1nc(C)c(/C=C(\NC(=O)c2ccc(C(=O)NCc3cccc(O)c3)cc2Cl)C(=O)O)s1 [Example 244] | 3000 |
| 0.94 | O=C(O)/C(=C/c1ccc2ncsc2c1)NC(=O)c1ccc(C(=O)NCc2cccc(O)c2)cc1Cl [Example 245] | 1380 |
| 2.4 | O=C(O)/C(=C/c1ccc2nonc2c1)NC(=O)c1ccc(C(=O)NCc2cccc(O)c2)cc1Cl [Example 246] | 7850 |
| 123 | O=C(O)/C(=C/c1cnc(-c2cccs2)s1)NC(=O)c1ccc(C(=O)NCc2cccc(O)c2)cc1Br [Example 262] | – |
| 124 | O=C(O)/C(=C/c1cnnc2ccccc12)NC(=O)c1ccc(C(=O)NCc2cccc(O)c2)cc1Br [Example 265] | – |
| 33 | O=C(O)/C(=C/c1cccs1)NC(=O)c1ccc(C(=O)NCc2cccc(O)c2)cc1Br [Example 271] | – |
| 42.5 | O=C(O)/C(=C/c1ccc2ccccc2n1)NC(=O)c1ccc(C(=O)NCc2cccc(O)c2)cc1Br [Example 275] | – |
| 50.6 | O=C(O)/C(=C/c1nc2ccccc2s1)NC(=O)c1ccc(C(=O)NCc2cccc(O)c2)cc1Br [Example 276] | – |
| 201 | Cn1c(/C=C(\NC(=O)c2ccc(C(=O)NCc3cccc(O)c3)cc2Br)C(=O)O)nc2ccccc21 [Example 288] | – |
| 190 | CCc1nc(C(C)C)c(/C=C(\NC(=O)c2ccc(C(=O)NCc3cccc(O)c3)cc2Cl)C(=O)O)s1 [Example 303, (Z)-2-[[2-Chloro-4-[[3-(3-hydroxybenzyl)amino]carbonyl]benzoyl]amino]-3-[2-ethyl-4-(1-methylethyl)thiazol-5-yl]propenoic Acid] | – |
| 56.3 | O=C(O)/C(=C/c1cccs1)NC(=O)c1ccc(C(=O)NCc2cccc3[nH]ccc23)cc1Cl [Example 308] | – |
| 56.1 | O=C(O)/C(=C/c1ccccn1)NC(=O)c1ccc(C(=O)NCc2cccc3[nH]ccc23)cc1Cl [Example 310] | – |
| 8.2 | O=C(O)/C(=C/c1ccsc1)NC(=O)c1ccc(C(=O)NCc2cccc(O)c2)cc1Br [Example 313] | – |
| 50.8 | O=C(O)/C(=C/c1cnc2ccccc2c1)NC(=O)c1ccc(C(=O)NCc2ccc3cc[nH]c3c2)cc1Cl [Example 324, (Z)-2-[[2-Chloro-4-[[[(1N-indol-6-yl)methyl]amino]carbonyl]benzoyl]amino]-3-(quinolin-3-yl)propenoic Acid] | – |
| 20.4 | C[C@@H](NC(=O)c1ccc(C(=O)N/C(=C\c2cccs2)C(=O)O)c(Cl)c1)c1cccc2ccccc12 [Example 327] | – |

From patent US6515124B2, “Dehydroamino acids” (Hoffman-La Roche Inc., priority 2000, dated 2003)
